Among the test systems are U251 CNS; OVCAR-3 ovarian; NCI-H522 lung; IGROV1 ovarian; M14 melanoma; UO-31 renal; HT29 colon; HCC-2998 colon; SNB-75 CNS; NCI-H226 lung.
Holding throughout (experiment): inhibition of tumour cell growth, NCI panel, 48 h

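In this assay, cells in 96-well plates receive the compound at five concentrations for 48 hours. Endpoints are linearly interpolated between the surrounding concentrations. Abbreviation: GI50, concentration required for 50% inhibition of growth. TGI denotes the concentration required for complete inhibition of growth.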

As for `O=C1Nc2ccc(O)cc2/C1=C\c1ccncc1`, the GI50 was 10.3 µM in the experiment on U251 CNS; 13.3 µM in the experiment on OVCAR-3 ovarian; 11.5 µM in the experiment on NCI-H522 lung; 4.27 µM with IGROV1 ovarian; 15.8 µM in the experiment with M14 melanoma; 14.1 µM in the experiment with UO-31 renal. Also, the TGI with U251 CNS was 23.1 µM; in the experiment with OVCAR-3 ovarian it was 41 µM; in the experiment with NCI-H522 lung it was 38.2 µM; in the experiment with IGROV1 ovarian, 41.6 µM; in the experiment with M14 melanoma, 39.6 µM; in the experiment with UO-31 renal, 31.8 µM.

Turning to `Cn1nc(-c2ccccc2)c2c(/C=C/c3ccc(Cl)cc3)onc2c1=O`, the TGI in the experiment with U251 CNS was > 100 µM; in the experiment with NCI-H522 lung, 45.5 µM; in the experiment on IGROV1 ovarian it was > 100 µM; in the experiment on M14 melanoma, > 100 µM; in the experiment on UO-31 renal, 71.4 µM; with HT29 colon, > 100 µM.

Regarding `O=C(/C=C\c1cc(Br)ccc1O)/C=C/c1cc(Br)ccc1O`, the GI50 in the experiment with HCC-2998 colon was 1.51 µM; with U251 CNS, 0.383 µM; in the experiment on OVCAR-3 ovarian, 0.351 µM; in the experiment with IGROV1 ovarian, 1.6 µM; in the experiment with M14 melanoma, 0.651 µM; in the experiment with SNB-75 CNS, 1.34 µM. Moreover, the GI50 was 0.882 µM in the experiment on UO-31 renal, 2.63 µM with NCI-H226 lung and 0.451 µM with HT29 colon. Besides, the TGI with HCC-2998 colon worked out at 2.89 µM; in the experiment on U251 CNS, 1.55 µM; in the experiment on OVCAR-3 ovarian, 1.13 µM; in the experiment on IGROV1 ovarian it was 3.62 µM; with M14 melanoma, 3.08 µM; in the experiment on SNB-75 CNS, 2.8 µM. Further, the TGI was 2.2 µM in the experiment with UO-31 renal, 8.69 µM with NCI-H226 lung and 1.84 µM in the experiment with HT29 colon.

Regarding `CC12CCCC(C#N)(C1)OC2=O` (stereo not drawn), the TGI in the experiment on U251 CNS, in the experiment on OVCAR-3 ovarian, with NCI-H522 lung, in the experiment on IGROV1 ovarian, in the experiment on M14 melanoma and in the experiment with SNB-75 CNS was > 100 µM each time. Also, the TGI in the experiment with UO-31 renal, with NCI-H226 lung and with HT29 colon was > 100 µM each time.

As to `Cc1cc2nc3c(=O)[nH]c(=O)nc-3n(CC(O)C(O)C(O)CO)c2cc1N` (stereo not drawn), the TGI in the experiment on HCC-2998 colon, in the experiment with OVCAR-3 ovarian, with IGROV1 ovarian, with M14 melanoma, in the experiment on SNB-75 CNS and with UO-31 renal was > 100 µM in each case. Moreover, the TGI in the experiment on NCI-H226 lung and with HT29 colon was > 100 µM in each case.

As to `COc1ccc(CN2C(=O)/C(=C\C(=O)c3ccc(OCCN4CCCC4)cc3)c3ccccc32)cc1`, the GI50 was 2.6 µM in the experiment on HCC-2998 colon; 1.8 µM with OVCAR-3 ovarian; 1.99 µM in the experiment with IGROV1 ovarian; 2.25 µM with M14 melanoma; 14.2 µM with SNB-75 CNS; 1.66 µM in the experiment on UO-31 renal. For the same compound, the GI50 with NCI-H226 lung was 20.8 µM. In addition, the TGI in the experiment with HCC-2998 colon worked out at 6.12 µM; with OVCAR-3 ovarian, 3.48 µM; in the experiment with IGROV1 ovarian, 3.78 µM; in the experiment with M14 melanoma, 5.34 µM; in the experiment with SNB-75 CNS, 30.9 µM; in the experiment with UO-31 renal, 3.11 µM. Also, the TGI with NCI-H226 lung amounted to 52.9 µM.

With `N.N.N.N.N.N#Cc1nn[n-]n1.[Cl-].[Co+3]`, the GI50 with HCC-2998 colon, in the experiment with U251 CNS, with OVCAR-3 ovarian, in the experiment on IGROV1 ovarian, with M14 melanoma and in the experiment with SNB-75 CNS was > 100 µM in each case. Moreover, the GI50 with UO-31 renal and with HT29 colon was > 100 µM throughout. The TGI with HCC-2998 colon, in the experiment with U251 CNS, with OVCAR-3 ovarian, with IGROV1 ovarian, in the experiment with M14 melanoma and in the experiment on SNB-75 CNS was > 100 µM in each case. In addition, the TGI with UO-31 renal and in the experiment with HT29 colon was > 100 µM in each case.

Take `c1ccc(COCC[P+](c2ccccc2)(c2ccccc2)c2ccccc2)cc1`: the GI50 in the experiment on U251 CNS is 0.869 µM; in the experiment on OVCAR-3 ovarian it was 1.07 µM; in the experiment with NCI-H522 lung it was 0.467 µM; with IGROV1 ovarian it was 1.08 µM; with M14 melanoma, 2.12 µM; in the experiment on SNB-75 CNS, 1.44 µM. For the same compound, the GI50 was 4.82 µM in the experiment with UO-31 renal, 1.22 µM in the experiment with NCI-H226 lung and 0.478 µM in the experiment on HT29 colon. The TGI was determined as 11.7 µM with U251 CNS; 17.8 µM with OVCAR-3 ovarian; 4.17 µM in the experiment on NCI-H522 lung; 11.9 µM in the experiment with IGROV1 ovarian; 13.4 µM in the experiment on M14 melanoma; 6.76 µM in the experiment with SNB-75 CNS. For the same compound, the values for the TGI with UO-31 renal, in the experiment on NCI-H226 lung and in the experiment with HT29 colon were 28.4 µM, 29.8 µM and 8.3 µM, respectively.

In the case of `C/C=C(\C)c1cc(=O)c2c(C)cc3c(c2o1)C(OC)(OC(C)=O)c1c(O)c(C2CC(C)(N(C)C)C(OC(C)=O)C(C)O2)cc(C2CC(N(C)C)C(OC(C)=O)C(C)O2)c1C3=O` (stereo not drawn), the TGI was > 20.4 µM with U251 CNS; > 41.8 µM in the experiment on OVCAR-3 ovarian; 57.1 µM with IGROV1 ovarian; 6.44 µM in the experiment on SNB-75 CNS; 4.68 µM with UO-31 renal; 5.03 µM in the experiment with NCI-H226 lung. Besides, the TGI in the experiment on HT29 colon is > 20.4 µM.

In the case of `COc1cccc(CCNC(=O)CC(c2ccccc2)(c2ccccc2)c2ccccc2)c1`, the GI50 was 4.86 µM with U251 CNS, 4.77 µM in the experiment with OVCAR-3 ovarian, > 100 µM in the experiment on SNB-75 CNS and 4.75 µM with UO-31 renal. The TGI in the experiment on U251 CNS is 55.6 µM; in the experiment on OVCAR-3 ovarian, > 100 µM; in the experiment on SNB-75 CNS, > 100 µM; in the experiment on UO-31 renal, > 100 µM.

`O=C(COc1cccc(/C=C2\COc3ccccc3C2=O)c1)c1ccccc1`: the GI50 in the experiment on U251 CNS was 1.65 µM; in the experiment on OVCAR-3 ovarian, 2.39 µM; with NCI-H522 lung it was 1.81 µM; in the experiment on IGROV1 ovarian, 2.18 µM; in the experiment with M14 melanoma, 3.12 µM; in the experiment with SNB-75 CNS, 11.5 µM. The GI50 in the experiment with UO-31 renal is 1.77 µM; with NCI-H226 lung, 12.3 µM; with HT29 colon, 2.04 µM. Also, the TGI in the experiment on U251 CNS came out at 3.03 µM; with OVCAR-3 ovarian, 5.12 µM; with NCI-H522 lung, 3.79 µM; in the experiment on IGROV1 ovarian, 3.96 µM; with M14 melanoma it was 14 µM; in the experiment with SNB-75 CNS it was 24.7 µM. For the same compound, the TGI with UO-31 renal came to 3.26 µM; with NCI-H226 lung it was 25.4 µM; with HT29 colon, 4.5 µM.

Consider `Cc1cc(O[C@@H]2O[C@@H](C)[C@H](O)[C@@H](O)[C@H]2O)c2c3c(c(O[C@@H]4O[C@@H](C)[C@H](O)[C@@H](O)[C@H]4O)cc2c1)C(=O)c1c(O)cccc1C3=O`, for which the GI50 with HCC-2998 colon, with U251 CNS, in the experiment with OVCAR-3 ovarian, with IGROV1 ovarian, with M14 melanoma and in the experiment on SNB-75 CNS was > 30 µM each time. For the same compound, the GI50 in the experiment on UO-31 renal, with NCI-H226 lung and in the experiment with HT29 colon was > 30 µM throughout. Besides, the TGI with HCC-2998 colon, in the experiment on U251 CNS, in the experiment with OVCAR-3 ovarian, in the experiment on IGROV1 ovarian, in the experiment on M14 melanoma and with SNB-75 CNS was > 30 µM each time. For the same compound, the TGI in the experiment on UO-31 renal, with NCI-H226 lung and in the experiment on HT29 colon was > 30 µM in each case.

As to `COc1ccc(NC(=S)C#N)cc1`, the TGI in the experiment with HCC-2998 colon, in the experiment with U251 CNS, in the experiment with OVCAR-3 ovarian, with M14 melanoma, in the experiment on SNB-75 CNS and with NCI-H226 lung was > 100 µM in each case. Besides, the TGI with HT29 colon was > 100 µM.

As for `CC(=O)n1nnc2ccc([N+](=O)[O-])cc21`, the TGI in the experiment on U251 CNS, with OVCAR-3 ovarian, in the experiment on NCI-H522 lung, in the experiment on IGROV1 ovarian, in the experiment with M14 melanoma and in the experiment on SNB-75 CNS was > 100 µM each time. Besides, the TGI with UO-31 renal, in the experiment on NCI-H226 lung and in the experiment with HT29 colon was > 100 µM each time.

On to `O=CC1CCC=CC1NC(=O)OCc1ccccc1` (stereo not drawn), for which the TGI was > 100 µM with U251 CNS; > 100 µM in the experiment with NCI-H522 lung; > 100 µM in the experiment with IGROV1 ovarian; > 100 µM in the experiment with M14 melanoma; 94.3 µM in the experiment on SNB-75 CNS; > 100 µM in the experiment with UO-31 renal. Also, the TGI in the experiment on NCI-H226 lung and in the experiment with HT29 colon was > 100 µM in each case.

`CCSc1nc(NC(C)c2ccccc2)c2cnn(CO)c2n1` (stereo not drawn): the GI50 is 74.8 µM in the experiment on U251 CNS; 64.7 µM in the experiment with OVCAR-3 ovarian; 14.7 µM with NCI-H522 lung; > 100 µM with IGROV1 ovarian; > 100 µM with M14 melanoma; > 100 µM in the experiment with SNB-75 CNS. For the same compound, the values for the GI50 in the experiment with UO-31 renal, with NCI-H226 lung and with HT29 colon were 66.5 µM, 47 µM and > 100 µM, respectively. The TGI in the experiment with U251 CNS, in the experiment on OVCAR-3 ovarian, in the experiment with NCI-H522 lung, in the experiment with IGROV1 ovarian, in the experiment on M14 melanoma and with SNB-75 CNS was > 100 µM each time. The TGI in the experiment with UO-31 renal, in the experiment with NCI-H226 lung and in the experiment on HT29 colon was > 100 µM throughout.

In the case of `CCc1cccc(C)c1N1C(=O)C(=O)C(c2nc3ccccc3o2)/C(=N/NC(=S)NN)C1=O` (stereo not drawn), the TGI in the experiment on U251 CNS, in the experiment on OVCAR-3 ovarian, in the experiment on NCI-H522 lung, in the experiment on IGROV1 ovarian, with M14 melanoma and in the experiment on SNB-75 CNS was > 100 µM throughout. Moreover, the TGI with UO-31 renal, with NCI-H226 lung and with HT29 colon was > 100 µM in each case.

These data come from PubChem BioAssay (NCI).
